Reference: PubChem BioAssay (NCI)
Several values for one entry are separate records, joined by “and”; a condition that tells them apart may be missing. Equal values may be shown once.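 Method: 48-hour compound exposure of cells in 96-well plates, five concentrations, linear interpolation of endpoints. GI50: concentration for 50% inhibition of growth. TGI: total growth inhibition.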

What was measured:
Assay in all cases: NCI tumour cell line growth inhibition, 48 h
OVCAR-4 ovarian = tested on: OVCAR-4 ovarian
NCI-H23 lung = tested on: NCI-H23 lung
EKVX NSCLC = tested on: EKVX NSCLC
NCI-H460 lung = tested on: NCI-H460 lung
RXF 393 renal = tested on: RXF 393 renal
HCC-2998 colon = tested on: HCC-2998 colon
SNB-19 CNS = tested on: SNB-19 CNS
KM12 colon = tested on: KM12 colon
RPMI-8226 leukemia = tested on: RPMI-8226 leukemia
SK-MEL-2 melanoma = tested on: SK-MEL-2 melanoma

| SMILES | GI50 (OVCAR-4 ovarian) [µM] | TGI (OVCAR-4 ovarian) [µM] | GI50 (NCI-H23 lung) [µM] | TGI (NCI-H23 lung) | GI50 (EKVX NSCLC) [µM] | TGI (EKVX NSCLC) | GI50 (NCI-H460 lung) [µM] | TGI (NCI-H460 lung) [µM] | GI50 (RXF 393 renal) [µM] | TGI (RXF 393 renal) [µM] | GI50 (HCC-2998 colon) [µM] | TGI (HCC-2998 colon) [µM] | GI50 (SNB-19 CNS) [µM] | TGI (SNB-19 CNS) [µM] | GI50 (KM12 colon) [µM] | TGI (KM12 colon) | GI50 (RPMI-8226 leukemia) [µM] | TGI (RPMI-8226 leukemia) | GI50 (SK-MEL-2 melanoma) [µM] | TGI (SK-MEL-2 melanoma) [µM] |
| --- | --- | --- | --- | --- | --- | --- | --- | --- | --- | --- | --- | --- | --- | --- | --- | --- | --- | --- | --- | --- |
| CC(C)(C)c1n[nH]c(=S)n(/N=C/c2ccc(F)c(Oc3ccccc3)c2)c1=O | 23.8 | 96.9 | 37.7 | > 100 µM | 41.6 | > 100 µM | 31 | > 100 | 38.2 | > 100 | 33.2 | > 100 | 40.9 | > 100 | 35.9 | > 100 µM | 32.5 | > 100 µM | – | – |
| Cc1c(C#N)c(=O)[nH]c(=O)n1CCN1CCN(C(=O)NCCCCCCNC(=O)N2CCN(CCn3c(C)c(C#N)c(=O)[nH]c3=O)CC2)CC1 | – | > 100 | – | > 100 µM | – | > 100 µM | – | > 100 | – | > 100 | – | > 100 | – | > 100 | – | – | – | > 100 µM | – | – |
| C/C(=N\Nc1ccc2ccccc2n1)c1ccccn1 | < 0.0204 | 33.5 | 0.156 | 13.6 µM | – | – | < 0.0507 | 3.71 | 0.229 | 5.86 | 0.133 | 2.51 | 0.198 | 14.3 | 0.115 | 9.12 µM | 0.0897 | 2.89 µM | 0.263 | 9.01 |
| COc1cc2nc(N3CCCC3)nc(NCC3CCCCC3)c2cc1OC | 1.25 | 2.71 | 1.57 | 3.07 µM | 1.45 | 2.91 µM | 1.75 | 3.35 | 1.07 | 2.49 | 0.444 | 1.62 | 1.59 | 2.99 | 1.63 | 3.13 µM | – | – | 1.86 | 3.51 |
| COc1cc2c(cc1OC(=O)CC(C)O)C1C(OC2=O)C(OC(C)=O)C=C2CCN(C)[C@H]21 (stereo not given in full) | – | > 100 | – | > 100 µM | – | > 100 µM | – | > 100 | – | – | – | > 100 | – | 57.5 | – | > 100 µM | – | – | – | 41.5 |
| COc1cccc(NC(=O)c2sc3nc4c(cc3c2N)CN(Cc2ccccc2)CC4)c1 | 2.68 | 19.7 | 7.18 | 49.2 µM | – | – | 4.18 | 30.9 | 2.71 | 12.9 | 9.13 | > 100 | 4.75 | > 100 | 11.8 | 40.3 µM | 38.9 | > 100 µM | 10.3 | 44.5 |
| CS(=O)(=O)c1ccc(C(=O)Nc2ccc(Cl)c(-c3ccccn3)c2)c(Cl)c1 | 29.7 | > 100 | – | > 100 µM and 17.2 µM | – | > 100 µM and 14.9 µM | – | – | – | – | – | – | – | > 100 | – | > 100 µM and 10.2 µM | – | > 100 µM and 10.6 µM | – | – |
| C=CCOC1OC(CO[Si](C)(C)C(C)(C)C)C(OCc2ccccc2)C(OCc2ccccc2)C1OCc1ccccc1 (stereo not given) | – | > 100 | – | > 100 µM | – | > 100 µM | – | > 100 | – | – | – | – | – | 60.3 | – | > 100 µM | – | > 100 µM | – | > 100 |
| O=S(=O)(c1ccccc1)C(CN1CCCCC1)S(=O)(=O)c1ccccc1 | – | > 100 | – | > 100 µM | – | – | – | > 100 | – | > 100 | – | > 100 | – | > 100 | – | > 100 µM | – | > 100 µM | – | > 100 |
| c1ccc2c(c1)c(NCCCCN1CCCCC1)cc1c3ccccc3c(NCCCCN3CCCCC3)cc21 | – | – | 20.5 | 44.5 µM | 19.9 | 42 µM | 18.3 | 53.7 | 15.7 | 38.2 | 18.2 | 41.6 | 22.5 | 50.9 | 2.97 | 8.98 µM | 3.85 | 74.5 µM | 69.3 | > 100 |
| Nn1c(-c2ccccc2Cl)nc2ccccc2c1=O | – | > 100 | – | > 100 µM | – | > 100 µM | – | > 100 | – | – | – | > 100 | – | > 100 | – | > 100 µM | – | > 100 µM | – | > 100 |
| N/C(=N\N=C\c1ccc(-c2ccccc2)cc1)N[N+](=O)[O-] | 10.8 | > 100 | 9.2 | > 100 µM | – | – | 2.98 | > 100 | 2.78 | 80.2 | – | – | – | > 100 | 1.27 | > 100 µM | 4.04 | > 100 µM | 4.82 | > 100 |
| O=C1c2ccccc2-c2c1c1ccc([N+](=O)[O-])cc1c(=O)n2CCCBr | > 100 | > 100 | 1.1 | 5.76 µM | > 100 | > 100 µM | – | – | > 100 | > 100 | > 100 | > 100 | > 100 | > 100 | > 100 | > 100 µM | 36 | > 100 µM | > 100 | > 100 |
| CNC(=O)OCc1c(COC(=O)NC)c(C)n(-c2ccc(Br)cc2)c1C | – | – | – | 35.4 µM | – | > 100 µM | – | 24.1 | – | 19.8 | – | 32.2 | – | 44.3 | – | 30.8 µM | – | 31.6 µM | – | 31 |
| CC(CN1CCN(CCOCCO)CC1)CN1c2ccccc2Sc2ccc(Cl)cc21 (stereo not given) | 4.22 | 16 | 10.8 | 24.2 µM | – | – | 2.36 | 5.35 | 1.58 | 4.85 | 1.91 | 3.51 | 8.14 | 21.8 | 2.78 | 8.21 µM | 2.19 | 5.54 µM | 1.87 | 3.63 |
| COc1ccc(C2CC(c3cc(OC)c(OC)c(OC)c3)=NN2C(C)=O)cc1OCC(=O)Nc1nc2ccc(C(F)(F)F)cc2s1 (stereo not given) | 2.9 | > 100 | 3.76 | 33 µM | 4.1 | > 100 µM | – | – | 2.09 | 5.32 | > 100 | > 100 | 11 | 35.8 | – | – | 2.21 | 7.09 µM | 3.08 | 20.4 |
